According to patent US6906205B2, “Spiro and dispiro 1,2,4-trioxolane antimalarials” (Medicines for Malaria Venture MMV, priority 2002, dated 2005):
≈ marks a conversion by molar mass, not a printed value.

How the values were obtained:
[1] = system: P. falciparum K1 strain (Thailand resistant to chloroquine); test: semiautomated microdilution assay, [3H]-hypoxanthine incorporation, K1 strain; assay type: cell-based, Plasmodium falciparum; details: K1 strain, 72 h incubation
Summary of the method: (§1)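 Compounds were tested against intraerythrocytic parasites taken from asynchronous stock cultures, using semiautomated microdilution. IC50 values were estimated by logit regression analysis.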

[2] = system: ANKA strain of P. berghei; test: single dose STI in vivo screen in infected mice; set-up: species or system Plasmodium berghei; details: for Activity (%) po / Activity (%) sc / Activity (%) SSVpo: percent reduction in parasitemia day 3 post-infection, mice; for Activity (%) po / Survival (days) po: single 10 mg/kg po in 3% ethanol and 7% Tween 80; for Activity (%) sc / Survival (days) sc: single 10 mg/kg sc in 3% ethanol and 7% Tween 80; for Survival (days) po / Survival (days) sc / Survival (days) SSVpo: untreated control 5.6 ± 0.3; for Activity (%) SSVpo: single po dose in standard suspending vehicle (SSV); for Survival (days) SSVpo: single po dose in SSV
Summary of the method: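 Groups of 3-5 Moro SPF or NMRI mice infected with the ANKA strain of P. berghei received a single dose of trioxolane on day one post-infection. The compound was given in 3% ethanol and 7% Tween 80 or in SSV (0.5% w/v CMC, 0.5% v/v benzyl alcohol, 0.4% v/v Tween 80, 0.9% w/v sodium chloride in water). Antimalarial activity was scored as percent reduction in parasitemia on day three and as survival time versus untreated controls. Survival to day 30 counted as cure.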

[3] = system: P. falciparum NF54 strain (sensitive to standard antimalarials); test: semiautomated microdilution assay, [3H]-hypoxanthine incorporation, NF54 strain; assay type: cell-based, Plasmodium falciparum; details: NF54 strain, 72 h incubation
Summary of the method: as §1

[4] = system: Schistosoma mansoni adult schistosomes (49-day-old); test: effect on adult schistosomes (49-day-old) in mice; assay type: in vivo; details: single 400 mg/kg per os
Method: Mice were infected with 100 Schistosoma mansoni cercariae […]. Each group was treated per os with OZ compounds at single doses of 200, 400, and 600 mg/kg. […] All groups were killed 4 weeks after treatment and the liver and intestine were removed and separated. The liver and intestine were compressed and alive male and female worms could be seen and counted.

Structure (SMILES)	IC50 (ng/ml) K1 [1]	Activity (%) po [2]	Activity (%) sc [2]	Survival (days) po [2] [days]	Survival (days) sc [2] [days]	IC50 (ng/ml) NF54 [3]	% reduction of adult worms growth at day 49 after per os application of 400 mg/kg, TWR (%) [4]	adult worms at day 49, per os 400 mg/kg, DEAD WORM (%) [4] [%]	Activity (%) po ([2]; 10 mg/kg) [%]	Activity (%) sc ([2]; 10 mg/kg) [%]	Survival (days) po ([2]; 10 mg/kg) [days]	Survival (days) sc ([2]; 10 mg/kg) [days]	Activity (%) SSVpo [2] [%]	Survival (days) SSVpo [2] [days]
CC1(C)COC2(CCC3(CC2)OOC2(O3)C3CCCC2CCC3)OC1 (stereo not shown) [OZ68]	41 ng/mL (≈ 116 nM)	1%	6%	5.0	5.3	49 ng/mL (≈ 139 nM)	17%	0	–	–	–	–	–	–
O=C(O)C1CCC2(CC1)OOC1(O2)C2CC3CC(C2)CC1C3 (stereo not shown) [OZ72]	15 ng/mL (≈ 48.6 nM)	–	–	–	–	13 ng/mL (≈ 42.2 nM)	–	10	97	95	7.7	6.7	–	–
OC1(c2ccc(F)cc2)CCC2(CC1)OOC1(O2)C2CC3CC(C2)CC1C3 (stereo not shown) [OZ76]	1.7 ng/mL (≈ 4.54 nM)	49%	94%	6.3	8.0	3.0 ng/mL (≈ 8.01 nM)	32%	0	–	–	–	–	–	–
CCS(=O)(=O)N1CCC2(CC1)OOC1(O2)C2CC3CC(C2)CC1C3 (stereo not shown) [OZ79]	0.38 ng/mL (≈ 1.06 nM)	85%	99.94%	7.0	9.3	0.81 ng/mL (≈ 2.27 nM)	4%	0	–	–	–	–	–	–
c1ccc(C2(c3ccccn3)OOC3(O2)C2CC4CC(C2)CC3C4)nc1 (stereo not shown) [OZ81]	>100/>100 ng/ml	0/NA/0%	0/NA/0%	5.3	5.0	>100/>100 ng/ml	28%	0	–	–	–	–	–	–
O=C(CO)N1CCC2(CC1)OOC1(O2)C2CC3CC(C2)CC1C3 (stereo not shown) [OZ83]	0.30 ng/mL (≈ 0.928 nM)	92%	99.8%	7.0	8.0	0.60 ng/mL (≈ 1.86 nM)	7%	19	–	–	–	–	78	6.3
NC(=O)OC1CCC2(CC1)OOC1(O2)C2CC3CC(C2)CC1C3 (stereo not shown) [OZ107]	1.0 ng/mL (≈ 3.09 nM)	70%	99.74%	6.3	8.0	0.30 ng/mL (≈ 0.928 nM)	26%	4	–	–	–	–	32	6.3
CCN(CC)CC[C@H]1CC[C@]2(CC1)OOC1(O2)C2CC3CC(C2)CC1C3 (stereo partly shown) [OZ126]	0.20 ng/mL (≈ 0.55 nM)	55%	99.44%	7.0	8.5	0.50 ng/mL (≈ 1.38 nM)	0%	9	–	–	–	–	72	6.7
O=C1COC2(CCC3(CC2)OOC2(O3)C3CC4CC(C3)CC2C4)OC1 (stereo not shown) [OZ130]	0.62 ng/mL (≈ 1.77 nM)	98.8%	98.6%	9.0	7.3	0.94 ng/mL (≈ 2.68 nM)	0%	8	–	–	–	–	98.9	8.0
O=C([C@H]1CC[C@]2(CC1)OOC1(O2)C2CC3CC(C2)CC1C3)N1CCN(c2ccccc2)CC1 (stereo partly shown) [OZ140]	5.9 ng/mL (≈ 13 nM)	0%	60%	6.0	7.0	8.2 ng/mL (≈ 18.1 nM)	0%	3	–	–	–	–	8	6.3
O=C(OC[C@H]1CC[C@]2(CC1)OOC1(O2)C2CC3CC(C2)CC1C3)N1CCN(c2ccccc2)CC1 (stereo partly shown) [OZ148]	17 ng/mL (≈ 35.2 nM)	38%	21%	7.3	6.3	16 ng/mL (≈ 33.2 nM)	25%	0	–	–	–	–	58	7.7
OC12CC3CC(C1)C1(OOC4(CCC5(CC4)OCCO5)O1)C(C3)C2 (stereo not shown) [OZ153]	7.7 ng/mL (≈ 22.8 nM)	–	–	6.3	–	19 ng/mL (≈ 56.1 nM)	No alive/dead worm*	–	15	20	–	6.3	23	7.0
CC1(C)COC(c2ccc([C@H]3CC[C@]4(CC3)OOC3(O4)C4CC5CC(C4)CC3C5)cc2)=N1 (stereo partly shown) [OZ154]	5.0 ng/mL (≈ 11.4 nM)	–	–	–	–	6.1 ng/mL (≈ 13.9 nM)	58%	0	99.74	59	14.7	7.7	81	8.7
